From patent publication US12215085B2 (priority 2019, dated 2025)
Marks after values point to notes of the source that are not given here.

Experiments:
[1] = system: rats with beta-amyloid induced senile dementia; assay: Water maze test, beta-amyloid induced senile dementia rats; type: in vivo, rat; details: succinate; for speed for reaching the platform / swimming path length for reaching the platform / time for reaching the platform / orientation angle for reaching the platform: x ± s
[2] = Acute toxicity LD50, rat; details: in vivo, po
[3] = system: rat; assay: Acute toxicity LD50, rat; details: clinical daily dosage 8 mg/60 kg human/day, per kilogram body weight
[4] = 24 hours equilibrium solubility in water; type: physicochemical; details: thermodynamic from solid, room temperature, initial concentration about 100 mg/mL, read-out: 24 hours equilibrium solubility in H2O
Method: Step: 24 hours equilibrium solubility of the sample of Crystal Form A in water was tested at room temperature. In the experiment, after mixing the sample of crystal form with water to form a suspension (initial concentration was about 100 mg/mL), the stirring was carried out for 24 hours (1000 rpm) at room temperature, a supernatant obtained from the centrifugation was filtered and the solubility was measured, and the residual solid was subjected to the XRPD test.

[5] = system: Wistar rats; assay: Long-term toxicity, 27 weeks, Wistar rats
Excerpt: 120 Wistar rats were used, 30 rats per group, wherein half of them were males and half were females. The administration route was ig administration, once per day, 6-day administration per week, and a 27-week test period.

[6] = system: mouse; assay: Acute toxicity LD50, mouse; details: clinical daily dosage 8 mg/60 kg human/day, per kilogram body weight
[7] = Acute toxicity LD50, mouse; details: in vivo, po
[8] = system: rats with beta-amyloid induced senile dementia; assay: Brain pathological examination, beta-amyloid induced senile dementia rats; type: in vivo, rat
[9] = Day 3, 2.8 mg/kg intragastric, 2.8 mg/kg
[10] = Day 4, 0.7 mg/kg intragastric, 0.7 mg/kg
[11] = Day 4, 1.4 mg/kg intragastric, 1.4 mg/kg
[12] = Day 4, 2.8 mg/kg intragastric, 2.8 mg/kg
[13] = Day 5, 0.7 mg/kg intragastric, 0.7 mg/kg
[14] = Day 5, 1.4 mg/kg intragastric, 1.4 mg/kg
[15] = Day 5, 2.8 mg/kg intragastric, 2.8 mg/kg
[16] = Day 6, 0.7 mg/kg intragastric, 0.7 mg/kg
[17] = Day 6, 1.4 mg/kg intragastric, 1.4 mg/kg
[18] = Day 6, 2.8 mg/kg intragastric, 2.8 mg/kg

Nc1c2c(nc3c1CCCC3)CCCC2.O=C(O)CCC(=O)O [Crystal Form A, 9-amino-1,2,3,4,5,6,7,8-octahydroacridine succinate]
speed for reaching the platform [1, 9]: 22.47 ± 2.59 cm/s | swimming path length for reaching the platform [1, 9]: 426.44 ± 213.56 cm | time for reaching the platform [1, 9]: 20.24 ± 10.26 s | adopted strategy for reaching the platform (the peripheral type and the random type %) [1, 10]: 64.50* % | orientation angle for reaching the platform [1, 10]: 47.21 ± 18.21 ° | speed for reaching the platform [1, 10]: 24.92 ± 2.52 cm/s | swimming path length for reaching the platform [1, 10]: 806.38 ± 1014.62 cm | time for reaching the platform [1, 10]: 32.05 ± 39.88 s | adopted strategy for reaching the platform (the peripheral type and the random type %) [1, 11]: 77.50% | orientation angle for reaching the platform [1, 11]: 53.54 ± 25.57 ° | speed for reaching the platform [1, 11]: 25.56 ± 4.54 cm/s | swimming path length for reaching the platform [1, 11]: 493.65 ± 256.60 cm | time for reaching the platform [1, 11]: 20.82 ± 11.32 s | adopted strategy for reaching the platform (the peripheral type and the random type %) [1, 12]: 67.50* % | orientation angle for reaching the platform [1, 12]: 47.22 ± 23.29 ° | speed for reaching the platform [1, 12]: 27.31 ± 4.62 cm/s | swimming path length for reaching the platform [1, 12]: 600.43 ± 563.07 cm | time for reaching the platform [1, 12]: 22.73 ± 21.88 s | adopted strategy for reaching the platform (the peripheral type and the random type %) [1, 13]: 75.50* % | orientation angle for reaching the platform [1, 13]: 54.72 ± 24.68 ° | speed for reaching the platform [1, 13]: 27.17 ± 13.51 cm/s | swimming path length for reaching the platform [1, 13]: 571.38 ± 716.43 cm | time for reaching the platform [1, 13]: 25.95 ± 33.84 s | adopted strategy for reaching the platform (the peripheral type and the random type %) [1, 14]: 57.50* % | orientation angle for reaching the platform [1, 14]: 53.41 ± 23.18 ° | speed for reaching the platform [1, 14]: 20.14 ± 4.25 cm/s | swimming path length for reaching the platform [1, 14]: 278.26 ± 125.79 cm | time for reaching the platform [1, 14]: 14.95 ± 9.19 s | adopted strategy for reaching the platform (the peripheral type and the random type %) [1, 15]: 68.00** % | orientation angle for reaching the platform [1, 15]: 43.23 ± 15.80 ° | speed for reaching the platform [1, 15]: 23.96 ± 4.94 cm/s | swimming path length for reaching the platform [1, 15]: 312.55 ± 230.50 cm | time for reaching the platform [1, 15]: 14.17 ± 11.56 s | adopted strategy for reaching the platform (the peripheral type and the random type %) [1, 16]: 65.50% | orientation angle for reaching the platform [1, 16]: 46.47 ± 18.69 ° | speed for reaching the platform [1, 16]: 23.50 ± 9.00 cm/s | swimming path length for reaching the platform [1, 16]: 461.68 ± 417.67 cm | time for reaching the platform [1, 16]: 21.76 ± 23.11 s | adopted strategy for reaching the platform (the peripheral type and the random type %) [1, 17]: 68.50% | orientation angle for reaching the platform [1, 17]: 46.29 ± 22.64 ° | speed for reaching the platform [1, 17]: 20.87 ± 4.35 cm/s | swimming path length for reaching the platform [1, 17]: 402.97 ± 434.93 cm | time for reaching the platform [1, 17]: 20.62 ± 22.63 s | adopted strategy for reaching the platform (the peripheral type and the random type %) [1, 18]: 52.50** % | orientation angle for reaching the platform [1, 18]: 40.91 ± 15.25 ° | speed for reaching the platform [1, 18]: 24.73 ± 4.83 cm/s | swimming path length for reaching the platform [1, 18]: 252.87 ± 161.30 cm | time for reaching the platform [1, 18]: 10.70 ± 6.74 s | LD50 [2]: 110 ± 9.1 mg/kg | LD50 as multiple of the clinical daily dosage [3]: ~824.3 times | solubility thermodynamic at 24 h [4]: 72.9 mg/mL | toxic target organ for long-term administration ([5]; 27 weeks intragastric): could be the liver, but reversible | animals died ([5]; high-dose group 30 mg/kg, 27 weeks): 5 animals | non-toxic reaction dose ([5]; intragastric, 27 weeks): 15 mg/kg | body weight of male and female rats vs control group ([5]; rat, in vivo): obviously reduced | electrocardiogram PR interval, QRS interval, QT interval, T wave, heart rate vs control group ([5]; rat, in vivo): no significant difference | general and microscopic examination of all organs ([5]; rat, in vivo): No obvious pathological changes caused by the drug toxicity | general state, behavioral activity, mental state, fur, urine and feces, food (water) intake ([5]; rat, in vivo): all normal | hematology, blood biochemistry examination and each organ coefficient vs control group ([5]; rat, in vivo): no obvious difference | rats with obvious elevation of the liver function index ALT ([5]; rat, in vivo): 2 rats | LD50 as multiple of the clinical daily dosage [6]: ~499.5 times | LD50 [7]: 66.6 ± 3.3 mg/kg | pathological damage of cerebral cortex and hippocampus caused by beta-amyloid ([8]; high-dose group (2.8 mg/kg)): could relieve the pathological damage | pathological changes of cortex and hippocampus compared with the model group ([8]; low and medium-dose groups (0.7 and 1.4 mg/kg)): no obvious difference
